The values that follow come from US12304917B1, “Pleuromutilin derivative containing a thiazolo[5,4-c]pyridine side chain, and a preparation method and application thereof” (SHAANXI UNIVERSITY OF SCIENCE AND TECHNOLOGY, priority 2024, dated 2025).

One data set concerns E. coli ATCC 25922. In words: MIC by broth microdilution. The note with it: Escherichia coli, ATCC25922, 24 h, read-out: Minimum inhibitory concentration E.c.^h. (In general: Dilution methods test growth across graded concentrations, often in twofold steps.)
A further data set has as its system E. coli CMCC 44103. In words: MIC by broth microdilution. The following applies: Escherichia coli, CMCC44103, 24 h, read-out: Minimum inhibitory concentration E.c.^i.
Data set [1] relates to Methicillin-resistant S. epidermidis ATCC 51625. In words: MIC by broth microdilution. The following applies: Staphylococcus epidermidis, ATCC51625|MRSE, 24 h, read-out: Minimum inhibitory concentration MRSE^e.
Data set [2] concerns Methicillin-resistant S. aureus ATCC 33591. In words: MIC by broth microdilution. The note with it: Staphylococcus aureus, ATCC33591|MRSA, 24 h, read-out: Minimum inhibitory concentration MRSA^b.
The next data set deals with S. aureus ATCC 29213. In words: MIC by broth microdilution. The note with it: Staphylococcus aureus, ATCC29213, 24 h, read-out: Minimum inhibitory concentration S.a.^d.
The next data set concerns S. enterica ATCC14028. In words: MIC by broth microdilution. The following applies: Salmonella enterica, ATCC14028, 24 h, read-out: Minimum inhibitory concentration S.e.^g.
Data set [3] has as its system Methicillin-resistant S. aureus ATCC 43300. In words: MIC by broth microdilution. The following applies: Staphylococcus aureus, ATCC43300|MRSA, 24 h, read-out: Minimum inhibitory concentration MRSA^c.
A further data set has as its system A. baumannii ATCC 19606. In words: MIC by broth microdilution. The note with it: Acinetobacter baumannii, ATCC19606, 24 h, read-out: Minimum inhibitory concentration A.b.^f.
The nature of a further data set: physchem. The following applies: thermodynamic from solid.

Values after ≈ are worked out from the molar mass of the structure shown.

A word on the solubility: it is the dissolved amount per volume that the medium holds.

Consider `C=C[C@]1(C)C[C@@H](OC(=O)CSc2nc3cc[n+](Cc4ccc(Br)cc4)cc3s2)[C@]2(C)[C@H](C)CC[C@]3(CCC(=O)[C@H]32)[C@@H](C)[C@@H]1O` [Compound I-1, 5-(4-bromobenzyl)-2-((2-(((3aR,4R,5R,7S,8S,9R,9aS,12R)-8-hydroxy-4,7,9,12-tetramethyl-3-oxo-7-vinyldecahydro-4,9a-propancyclopenta[8]cyclo-5-yl)oxy)-2-oxoethyl)thio)thiazolo[5,4-c]pyridin-5-ium], for which the MIC stood at 32 µg/mL with E. coli ATCC 25922; 32 µg/mL in the data set on E. coli CMCC 44103; 8 µg/mL in data set [1]; 32 µg/mL in data set [2]; 16 µg/mL with S. aureus ATCC 29213; 32 µg/mL with S. enterica ATCC14028. For the same compound, the MIC (in [3]; in the data set with A. baumannii ATCC 19606) was 16 µg/mL in each case. Moreover, in the data set “physchem”, the solubility came to 450 µM.

Regarding `C=C[C@]1(C)C[C@@H](OC(=O)CSc2nc3cc[n+](Cc4ccc(C(F)(F)F)cc4)cc3s2)[C@]2(C)[C@H](C)CC[C@]3(CCC(=O)[C@H]32)[C@@H](C)[C@@H]1O` [Compound I-2, 5-(4-trifluoromethyl)-2-((2-(((3aR,4R,5R,7S,8S,9R,9aS,12R)-8-hydroxy-4,7,9,12-tetramethyl-3-oxo-7-vinyldecahydro-4,9a-propancyclopenta[8]cyclo-5-yl)oxy)-2-oxoethyl)thio)thiazolo[5,4-c]pyridin-5-ium], the MIC in the data set with E. coli ATCC 25922 came to 8 µg/mL; in the data set with E. coli CMCC 44103, 16 µg/mL; in data set [1] it was 16 µg/mL; in data set [2], 32 µg/mL; in the data set with S. aureus ATCC 29213, 8 µg/mL; in the data set on S. enterica ATCC14028, 8 µg/mL. Also, the MIC stood at 16 µg/mL in data set [3] and 32 µg/mL in the data set on A. baumannii ATCC 19606. In addition, the concentration in solution in the data set “physchem” (solubility) came to 327 µM.

Turning to `C=C[C@]1(C)C[C@@H](OC(=O)CSc2nc3cc[n+](Cc4ccc(F)cc4)cc3s2)[C@]2(C)[C@H](C)CC[C@]3(CCC(=O)[C@H]32)[C@@H](C)[C@@H]1O` [Compound I-3, 5-(4-fluorobenzyl)-2-((2-(((3aR,4R,5R,7S,8S,9R,9aS,12R)-8-hydroxy-4,7,9,12-tetramethyl-3-oxo-7-vinyldecahydro-4,9a-propancyclopenta[8]cyclo-5-yl)oxy)-2-oxoethyl)thio)thiazolo[5,4-c]pyridin-5-ium], the MIC with E. coli ATCC 25922 came out at 8 µg/mL; in the data set on E. coli CMCC 44103 it was 16 µg/mL; in [1] it was 8 µg/mL; in data set [2] it was 32 µg/mL; in the data set on S. aureus ATCC 29213, 16 µg/mL; with S. enterica ATCC14028, 32 µg/mL. Also, the MIC in data set [3] was 16 µg/mL; in the data set with A. baumannii ATCC 19606, 32 µg/mL. Further, the concentration in solution in the data set “physchem” (solubility) came to 561 µM.

For the compound `C=C[C@]1(C)C[C@@H](OC(=O)CSc2nc3cc[n+](Cc4ccc(OC)cc4)cc3s2)[C@]2(C)[C@H](C)CC[C@]3(CCC(=O)[C@H]32)[C@@H](C)[C@@H]1O` [Compound I-4, 5-(4-methoxybenzyl)-2-((2-(((3aR,4R,5R,7S,8S,9R,9aS,12R)-8-hydroxy-4,7,9,12-tetramethyl-3-oxo-7-vinyldecahydro-4,9a-propancyclopenta[8]cyclo-5-yl)oxy)-2-oxoethyl)thio)thiazolo[5,4-c]pyridin-5-ium], the MIC in the data set with E. coli ATCC 25922 was found to be 16 µg/mL; with E. coli CMCC 44103, 8 µg/mL; in data set [1] it was 64 µg/mL; in data set [2] it was 32 µg/mL; in the data set on S. aureus ATCC 29213, 16 µg/mL; with S. enterica ATCC14028, 32 µg/mL. For the same compound, the MIC in data set [3] turned out to be 8 µg/mL; in the data set on A. baumannii ATCC 19606, 32 µg/mL. In “physchem”, this compound showed a solubility of 247 µM.

As for `C=C[C@]1(C)C[C@@H](OC(=O)CSc2nc3cc[n+](Cc4ccc(Cl)cc4)cc3s2)[C@]2(C)[C@H](C)CC[C@]3(CCC(=O)[C@H]32)[C@@H](C)[C@@H]1O` [Compound I-5, 5-(4-chlorobenzyl)-2-((2-(((3aR,4R,5R,7S,8S,9R,9aS,12R)-8-hydroxy-4,7,9,12-tetramethyl-3-oxo-7-vinyldecahydro-4,9a-propancyclopenta[8]cyclo-5-yl)oxy)-2-oxoethyl)thio)thiazolo[5,4-c]pyridin-5-ium], the MIC worked out at 32 µg/mL in the data set on E. coli ATCC 25922; 32 µg/mL in the data set with E. coli CMCC 44103; 32 µg/mL in [1]; 32 µg/mL in data set [2]; 8 µg/mL in the data set on S. aureus ATCC 29213; 16 µg/mL in the data set on S. enterica ATCC14028. Moreover, the MIC (in data set [3]; with A. baumannii ATCC 19606) was 32 µg/mL throughout. The solubility in “physchem” came to 623 µM.

`C=C[C@]1(C)C[C@@H](OC(=O)CSc2nc3cc[n+](Cc4cc(F)c(F)cc4F)cc3s2)[C@]2(C)[C@H](C)CC[C@]3(CCC(=O)[C@H]32)[C@@H](C)[C@@H]1O` [Compound I-7, 5-(2,4,5-trifluorobenzyl)-2-((2-(((3aR,4R,5R,7S,8S,9R,9aS,12R)-8-hydroxy-4,7,9,12-tetramethyl-3-oxo-7-vinyldecahydro-4,9a-propancyclopenta[8]cyclo-5-yl)oxy)-2-oxoethyl)thio)thiazolo[5,4-c]pyridin-5-ium]: the MIC in the data set with E. coli ATCC 25922 came to 128 µg/mL; with E. coli CMCC 44103, 64 µg/mL; in [1], 64 µg/mL; in data set [2], 128 µg/mL; with S. aureus ATCC 29213, 64 µg/mL; in the data set on S. enterica ATCC14028, 64 µg/mL. Also, the MIC in [3] came to 64 µg/mL; in the data set on A. baumannii ATCC 19606, 128 µg/mL. The compound further had a solubility in “physchem” of 656 µM.

For `C=C[C@]1(C)C[C@@H](OC(=O)CSc2nc3cc[n+](Cc4ccc(-c5ccccc5)cc4)cc3s2)[C@]2(C)[C@H](C)CC[C@]3(CCC(=O)[C@H]32)[C@@H](C)[C@@H]1O` [Compound I-10, 5-([1,1′-biphenyl]-4-ylmethyl)-2-((2-(((3aR,4R,5R,7S,8S,9R,9aS,12R)-8-hydroxy-4,7,9,12-tetramethyl-3-oxo-7-vinyldecahydro-4,9a-propancyclopenta[8]cyclo-5-yl)oxy)-2-oxoethyl)thio)thiazolo[5,4-c]pyridin-5-ium], the MIC is 16 µg/mL with E. coli ATCC 25922; 32 µg/mL with E. coli CMCC 44103; 32 µg/mL in data set [1]; 16 µg/mL in data set [2]; 8 µg/mL with S. aureus ATCC 29213; 16 µg/mL in the data set with S. enterica ATCC14028. Moreover, the MIC was 64 µg/mL in [3] and 8 µg/mL in the data set with A. baumannii ATCC 19606. The solubility in “physchem” turned out to be 513 µM.

For `C=C[C@]1(C)C[C@@H](OC(=O)CSc2nc3cc[n+](Cc4ccc(C(C)(C)C)cc4)cc3s2)[C@]2(C)[C@H](C)CC[C@]3(CCC(=O)[C@H]32)[C@@H](C)[C@@H]1O` [Compound I-11, 5-(4-(tert-butyl)benzyl)-2-((2-(((3aR,4R,5R,7S,8S,9R,9aS,12R)-8-hydroxy-4,7,9,12-tetramethyl-3-oxo-7-vinyldecahydro-4,9a-propancyclopenta[8]cyclo-5-yl)oxy)-2-oxoethyl)thio)thiazolo[5,4-c]pyridin-5-ium], the MIC was 32 µg/mL with E. coli ATCC 25922; 16 µg/mL with E. coli CMCC 44103; 32 µg/mL in data set [1]; 64 µg/mL in data set [2]; 32 µg/mL with S. aureus ATCC 29213; 32 µg/mL with S. enterica ATCC14028. In addition, the MIC stood at 16 µg/mL in data set [3] and 8 µg/mL in the data set on A. baumannii ATCC 19606.

`C=C[C@]1(C)C[C@@H](OC(=O)CSc2nc3cc[n+](Cc4cc(C)cc(C)c4)cc3s2)[C@]2(C)[C@H](C)CC[C@]3(CCC(=O)[C@H]32)[C@@H](C)[C@@H]1O` [Compound I-12, 5-(3,5-dimethylbenzyl)-2-((2-(((3aR,4R,5R,7S,8S,9R,9aS,12R)-8-hydroxy-4,7,9,12-tetramethyl-3-oxo-7-vinyldecahydro-4,9a-propancyclopenta[8]cyclo-5-yl)oxy)-2-oxoethyl)thio)thiazolo[5,4-c]pyridin-5-ium]: the MIC with E. coli ATCC 25922 amounted to 64 µg/mL; in the data set with E. coli CMCC 44103, 32 µg/mL; in [1] it was 32 µg/mL; in data set [2] it was 64 µg/mL; in the data set with S. aureus ATCC 29213 it was 16 µg/mL; in the data set on S. enterica ATCC14028 it was 64 µg/mL. Also, the MIC in [3] worked out at 64 µg/mL; in the data set with A. baumannii ATCC 19606 it was 32 µg/mL. Besides, the concentration in solution in “physchem” (solubility) was 549 µM.

On to `C=C[C@]1(C)C[C@@H](OC(=O)CSc2nc3cc[n+](Cc4cc(F)ccc4C#N)cc3s2)[C@]2(C)[C@H](C)CC[C@]3(CCC(=O)[C@H]32)[C@@H](C)[C@@H]1O` [Compound I-13, 5-(2-cyano-5-fluorobenzyl)-2-((2-(((3aR,4R,5R,7S,8S,9R,9aS,12R)-8-hydroxy-4,7,9,12-tetramethyl-3-oxo-7-vinyldecahydro-4,9a-propancyclopenta[8]cyclo-5-yl)oxy)-2-oxoethyl)thio)thiazolo[5,4-c]pyridin-5-ium], for which the MIC with E. coli ATCC 25922 came out at 64 µg/mL; with E. coli CMCC 44103, 32 µg/mL; in [1] it was 32 µg/mL; in data set [2] it was 32 µg/mL; in the data set on S. aureus ATCC 29213, 64 µg/mL; in the data set with S. enterica ATCC14028, 64 µg/mL. For the same compound, the MIC (in [3]; in the data set with A. baumannii ATCC 19606) was 64 µg/mL each time. This compound came in with a solubility in “physchem” of 231 µM.

Regarding `C=C[C@]1(C)C[C@@H](OC(=O)CSCCN(CC)CC)[C@]2(C)[C@H](C)CC[C@]3(CCC(=O)[C@H]32)[C@@H](C)[C@@H]1O` [Tiamulin, tiamulin, reference compound], the solubility in the data set “physchem” worked out at 259 µM (≈ 128 µg/mL).
